Earlier results, collected in patent US12571046B2, “Methods of detecting and treating multiple system atrophy” (THE TRANSLATIONAL GENOMICS RESEARCH INSTITUTE, priority 2020, dated 2026).

Columns and labels:
[1] = test system: conditional QKI knock-out mouse model; details: conditional QKI-KO mouse; PPARβ and RXR agonists; literature ref [82]/[96]
α-synuclein = α-synuclein (Homo sapiens, UniProt P37840); details: in vitro; interaction at N-terminus of α-synuclein; literature ref [65]

Row | effect on α-synuclein fibrillization (α-synuclein) | Compound | effect on QKI deficiency-induced demyelination [1]
1 |  | C[C@@H]1CN(c2ccc(OC(F)(F)F)cc2)C[C@H](C)N1S(=O)(=O)c1cccc2c1C[C@@H](C(=O)O)C2.Cc1ccc(S(=O)(=O)O)cc1 [KD3010] | alleviate QKI deficiency-induced demyelination in the mouse
2 |  | C=C(c1ccc(C(=O)O)cc1)c1cc2c(cc1C)C(C)(C)CCC2(C)C [bexarotene] | alleviate QKI deficiency-induced demyelination in the mouse
3 | delays α-synuclein fibrillization | Vitamin K | 
